How the values were obtained:
[1] = tested on: Klebsiella pneumoniae ATCC 4352/K2510; format: cell-based; conditions: K. pneumoniae; 100 mg/L in water; positive control
Description: (§1) The antibacterial activity of the peptides shown in Table 2 was tested at a concentration of 5,000 mg/L in an MPN suspension test (MPN=Most Probable Number) on various microorganisms (Staphylococcus aureus ATCC 6538/[…], initial bacterial count 3.6E±0.6; Klebsiella pneumoniae ATCC 4352/[…], initial bacterial count 6.1E±06). The respective peptide solutions were dissolved in water (control), detergent without enzyme (A) and detergent with enzyme (B) at a concentration of 5,000 mg/L. The MPN suspension test was performed in deep-well microtiter plates (1,000 μl volume per well), each well containing 800 μl application concentration (AWK, prepared in distilled water) with a 1.25-fold concentration of the test substance (final concentration: 5,000 mg/L). In each case, 100 μl of the bacterial suspension was added (final concentration: 1.0E±08 CFU/ml). […] After at least 5 min and a maximum of 30 min inactivation, the number of living test germ cells was determined. […] For evaluation, the growth in the wells, indicated by turbidity of the nutrient broth, was determined visually or using the Tecan reader. The microbicidal activity was calculated using the following formula: RF=K/D or log 10K-log10D, where RF=reduction factor, K=number of CFU/ml without exposure to the product (water control) and D=number of CFU/ml after exposure to the product.

[2] = tested on: Staphylococcus aureus ATCC 6538/K3212; format: cell-based; conditions: S. aureus; 100 mg/L in water; positive control
Description: as §1

Benzalkonium chloride
Log reduction, Water [1]: >4.40 | Log reduction, Water [2]: >4.65
